Source: ChEMBL document CHEMBL1130616, “Synthesis and biological activity of glutamic acid derivatives” (Bioorg Med Chem Lett, 1998)

Columns and labels:
Format in all cases: functional
Rattus norvegicus [1] = organism: Rattus norvegicus; test: Effective concentration by measuring IP2 accumulation using rat fore brain synaptoneurosomes
Rattus norvegicus [2] = organism: Rattus norvegicus; test: Effective concentration by measuring IP1 accumulation using rat fore brain synaptoneurosomes
Rattus norvegicus [3] = organism: Rattus norvegicus; test: Emax by measuring IP2 accumulation using rat fore brain synaptoneurosomes
Rattus norvegicus [4] = organism: Rattus norvegicus; test: Emax by measuring IP1 accumulation using rat fore brain synaptoneurosomes

Structure (SMILES)	EC50 (Rattus norvegicus [1]) [µM]	EC50 (Rattus norvegicus [2]) [µM]	Emax (Rattus norvegicus [3]) [%]	Emax (Rattus norvegicus [4]) [%]
N[C@@H](CC(C=O)CCCCN1C(=O)c2ccccc2C1=O)C(=O)O.N[C@@]1(C(=O)O)CC[C@@H](C(=O)O)C1 (some centres undefined)	79	37	543	264
C[C@@](N)(C(=O)O)c1ccc(C(=O)O)cc1.N[C@@]1(C(=O)O)CC[C@@H](C(=O)O)C1	224	109	643	269
C[C@@](N)(C(=O)O)c1ccc(C(=O)O)cc1.N[C@@H](Cn1oc(=O)[nH]c1=O)C(=O)O	1.34	0.63	358	225
N[C@@H](CC(C=O)CCCCN1C(=O)c2ccccc2C1=O)C(=O)O.N[C@@H](Cn1oc(=O)[nH]c1=O)C(=O)O (some centres undefined)	0.27	0.14	359	216
N[C@@]1(C(=O)O)CC[C@@H](C(=O)O)C1	38	17	700	284
N[C@@H](Cn1oc(=O)[nH]c1=O)C(=O)O [QUISQUALATE]	0.32	0.1	524	240
